From ChEMBL document CHEMBL3853308, “Condensation of Macrocyclic Polyketides Produced by Penicillium sp. DRF2 with Mercaptopyruvate Represents a New Fungal Detoxification Pathway” (J Nat Prod, 2016)

Tests used:
[1] = Cytotoxicity against human MCF10A cells at 7.8 to 1000 uM after 24 hrs by XTT assay; format: toxicity, cell-based; details: mcf-10a
[2] = Cytotoxicity against human A549 cells after 24 hrs by XTT assay; format: functional, cell-based; details: A549, 24 h
[3] = Cytotoxicity against human HeLa cells after 24 hrs by XTT assay; format: functional, cell-based
[4] = Cytotoxicity against human MCF7 cells after 24 hrs by XTT assay; details: MCF7, 24 h

SMILES | Activity [1] | IC50 [2] [nM] | IC50 [3] [nM] | IC50 [4] [nM]
C[C@H]1CCC(=O)/C=C/C(=O)c2c(O)cc(O)cc2CC(=O)O1 | Non-Toxic |  |  | 
COC(=O)[C@@]1(O)CS[C@H]2CCC[C@H](C)OC(=O)Cc3cc(O)cc(O)c3C(=O)[C@@H]21 | Non-Toxic |  |  | 
C[C@H]1CCC[C@@H]2SC[C@](O)(C(=O)O)[C@H]2C(=O)c2c(O)cc(O)cc2CC(=O)O1 | Non-Toxic |  |  | 
C[C@H]1CCC[C@H]2O[C@H]2C(=O)c2c(O)cc(O)cc2CC(=O)O1 | Non-Toxic |  |  | 
COc1cccc2c1C(=O)c1c(O)c3c(c(O)c1C2=O)C[C@@](O)(C(=O)CO)C[C@@H]3O[C@H]1C[C@H](N)[C@H](O)[C@H](C)O1 [DOXORUBICIN] |  | 190 | 140 | 120
